In patent US9474790B2, “Stable, protracted GLP-1/glucagon receptor co-agonists for medical use” (Novo Nordisk A/S, priority 2013, dated 2016):
Numbered stars: 1 amine (or outer) side, 2 acyl side, 3 side chain; on linkers, the order of the positions; unused ones are H or OH. Bridge positions count the residues as written; N and C are the ends. Square brackets hold non-standard residues; d marks the D form. Side chains are listed from the residue outwards. Peptide text beside a SMILES is read from it. I, II: the chains in the order shown. * marks the point of attachment. C18 diacid = O=C(O)CCCCCCCCCCCCCCCCC(=O)*; γGlu = O=C(O)[C@H](CCC(=O)[*:2])N[*:1]; Ac4c = NC1(C(=O)O)CCC1; AEEA = NCCOCCOCC(=O)O; Aib = CC(C)(N)C(=O)O

Tests used:
human GLP-1 receptor = molecular target: T1, human GLP-1 receptor (Homo sapiens, UniProt P43220); assay: GLP-1 receptor binding, 125I-GLP-1 displacement SPA on isolated membranes; details: displacement of 125I-GLP-1 from membranes; read-out: IC50 GLP-1R
T1 construct: expressed in transfected cells; host or cells: BHK cells (parent BHKTS13), clone FCW467-12A/KZ10-1, with CRE luciferase
In short: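 Test derivatives, serially diluted, competed with 125I-GLP-1(7-36)NH2 for the human GLP-1 receptor on BHK membranes, read by WGA-bead scintillation proximity after 2 h at 30°C, pH 7.4 HEPES/EGTA/MgCl2 buffer. Final serum albumin was either ≤0.001% or 2.0%; IC50 from non-linear fit.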

[1] = Chemical stability assessment by RP-UPLC; type: physicochemical; details: 333 μM, 8 mM phosphate buffer pH 7.3, 37° C. vs 5° C.
In short: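 Purity loss = (purity after 14 days at 5° C. minus that at 37° C.) relative to the 5° C. value, purity being main-peak area % by RP-UPLC with UV at 215 nm. Samples were 333 μM in 8 mM phosphate, pH 7.3; gradient adjusted for outlying retention times.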

T1 sequence (P43220 24-463): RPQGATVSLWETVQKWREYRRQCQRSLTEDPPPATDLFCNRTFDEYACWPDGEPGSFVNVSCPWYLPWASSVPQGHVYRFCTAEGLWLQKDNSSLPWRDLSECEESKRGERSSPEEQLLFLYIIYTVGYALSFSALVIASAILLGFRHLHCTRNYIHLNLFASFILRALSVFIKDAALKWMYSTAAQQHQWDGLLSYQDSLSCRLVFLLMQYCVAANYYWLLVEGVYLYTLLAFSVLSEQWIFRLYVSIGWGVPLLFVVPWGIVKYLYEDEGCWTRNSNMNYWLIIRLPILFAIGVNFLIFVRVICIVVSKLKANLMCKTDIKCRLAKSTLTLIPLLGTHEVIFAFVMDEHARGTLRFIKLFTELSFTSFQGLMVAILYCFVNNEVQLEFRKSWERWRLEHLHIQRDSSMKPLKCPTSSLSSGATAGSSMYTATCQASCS

IC50 (human GLP-1 receptor) [nM] | Purity loss; 14 days at 37° C. [1] [%] | SMILES
0.2 | 3 | CC(C)C[C@H](NC(=O)[C@H](CC(=O)O)NC(=O)[C@H](CC(C)C)NC(=O)[C@H](Cc1ccc(O)cc1)NC(=O)[C@H](CCCCN)NC(=O)[C@H](CO)NC(=O)[C@H](CC(C)C)NC(=O)[C@H](CC(=O)O)NC(=O)[C@H](CO)NC(=O)[C@@H](NC(=O)[C@H](Cc1ccccc1)NC(=O)[C@@H](NC(=O)CNC(=O)[C@H](CCC(N)=O)NC(=O)C1(NC(=O)[C@@H](N)Cc2c[nH]cn2)CCC1)[C@@H](C)O)[C@@H](C)O)C(=O)N[C@@H](CCCCN)C(=O)N[C@@H](CCCNC(=N)N)C(=O)N[C@@H](C)C(=O)N[C@@H](CCCNC(=N)N)C(=O)N[C@@H](CCC(=O)O)C(=O)N[C@@H](Cc1ccccc1)C(=O)N[C@H](C(=O)N[C@@H](CCC(N)=O)C(=O)N[C@@H](Cc1c[nH]c2ccccc12)C(=O)N[C@@H](CC(C)C)C(=O)N[C@@H](CC(C)C)C(=O)N[C@@H](CCCCNC(=O)CC[C@H](NC(=O)CC[C@H](NC(=O)COCCOCCNC(=O)COCCOCCNC(=O)CC[C@H](NC(=O)CC[C@H](NC(=O)CCCCCCCCCCCCCCCCC(=O)O)C(=O)O)C(=O)O)C(=O)O)C(=O)O)C(=O)N[C@H](C(N)=O)[C@@H](C)O)C(C)C [Example 47, N^ε28-[(4S)-4-carboxy-4-[[(4S)-4-carboxy-4-[[2-[2-[2-[[2-[2-[2-[[(4S)-4-carboxy-4-[[(4S)-4-carboxy-4-(17-carboxyheptadecanoylamino)butanoyl]amino]butanoyl]amino]ethoxy]ethoxy]acetyl]amino]ethoxy]ethoxy]acetyl]amino]butanoyl]amino]butanoyl]-[Acb2,Leu10,Leu16,Lys17,Arg20,Glu21,Leu27,Lys28]-Glucagon amide] (H-H[Ac4c]QGTFTSDLSKYLDLKRAREFVQWLLK([γGlu-γGlu-AEEA-AEEA-γGlu-γGlu-C18 diacid])T-NH2; N-terminus assumed)
0.2 | 2 | CC(C)C[C@H](NC(=O)[C@H](CC(=O)O)NC(=O)[C@H](CC(C)C)NC(=O)[C@H](Cc1ccc(O)cc1)NC(=O)[C@H](CCCCN)NC(=O)[C@H](CO)NC(=O)[C@H](CC(C)C)NC(=O)[C@H](CC(=O)O)NC(=O)[C@H](CO)NC(=O)[C@@H](NC(=O)[C@H](Cc1ccccc1)NC(=O)[C@@H](NC(=O)CNC(=O)[C@H](CCC(N)=O)NC(=O)C1(NC(=O)[C@@H](N)Cc2c[nH]cn2)CCC1)[C@@H](C)O)[C@@H](C)O)C(=O)N[C@@H](CCCCN)C(=O)N[C@@H](CCCNC(=N)N)C(=O)N[C@@H](C)C(=O)N[C@@H](CCCNC(=N)N)C(=O)N[C@@H](CCC(=O)O)C(=O)N[C@@H](Cc1ccccc1)C(=O)N[C@H](C(=O)N[C@@H](CCC(N)=O)C(=O)N[C@@H](Cc1c[nH]c2ccccc12)C(=O)N[C@@H](CC(C)C)C(=O)N[C@@H](CC(C)C)C(=O)N[C@@H](CCCCNC(=O)CNC(=O)[C@H](CO)NC(=O)[C@H](CCC(=O)O)NC(=O)CNC(=O)[C@H](CO)NC(=O)CC[C@H](NC(=O)CC[C@H](NC(=O)CCCCCCCCCCCCCCCCC(=O)O)C(=O)O)C(=O)O)C(=O)N[C@H](C(N)=O)[C@@H](C)O)C(C)C [Example 48] (I: H-H[Ac4c]QGTFTSDLSKYLDLKRAREFVQWLLKT-NH2 / II: {C18 diacid-γGlu-γGlu}-SGESG; amide I:28-II:C; N-terminus assumed)
0.4 | 2 | CC(C)C[C@H](NC(=O)[C@H](CC(=O)O)NC(=O)[C@H](CC(C)C)NC(=O)[C@H](Cc1ccc(O)cc1)NC(=O)[C@H](CCCCN)NC(=O)[C@H](CO)NC(=O)[C@H](CC(C)C)NC(=O)[C@H](CC(=O)O)NC(=O)[C@H](CO)NC(=O)[C@@H](NC(=O)[C@H](Cc1ccccc1)NC(=O)[C@@H](NC(=O)CNC(=O)[C@H](CCC(N)=O)NC(=O)C1(NC(=O)[C@@H](N)Cc2c[nH]cn2)CCC1)[C@@H](C)O)[C@@H](C)O)C(=O)N[C@@H](CCCNC(=N)N)C(=O)N[C@@H](CCCNC(=N)N)C(=O)N[C@@H](C)C(=O)N[C@@H](CCCNC(=N)N)C(=O)N[C@@H](CCC(=O)O)C(=O)N[C@@H](Cc1ccccc1)C(=O)N[C@H](C(=O)N[C@@H](CCC(N)=O)C(=O)N[C@@H](Cc1c[nH]c2ccccc12)C(=O)N[C@@H](CC(C)C)C(=O)N[C@@H](CC(C)C)C(=O)N[C@@H](CCCCNC(=O)CC[C@H](NC(=O)CC[C@H](NC(=O)COCCOCCNC(=O)COCCOCCNC(=O)CC[C@H](NC(=O)CC[C@H](NC(=O)CCCCCCCCCCCCCCCCC(=O)O)C(=O)O)C(=O)O)C(=O)O)C(=O)O)C(=O)N[C@H](C(N)=O)[C@@H](C)O)C(C)C [Example 49, N^ε28-[(4S)-4-carboxy-4-[[(4S)-4-carboxy-4-[[2-[2-[2-[[2-[2-[2-[[(4S)-4-carboxy-4-[[(4S)-4-carboxy-4-(17-carboxyheptadecanoylamino)butanoyl]amino]butanoyl]amino]ethoxy]ethoxy]acetyl]amino]ethoxy]ethoxy]acetyl]amino]butanoyl]amino]butanoyl]-[Acb2,Leu10,Leu16,Arg20,Glu21,Leu27,Lys28]-Glucagon amide] (H-H[Ac4c]QGTFTSDLSKYLDLRRAREFVQWLLK([γGlu-γGlu-AEEA-AEEA-γGlu-γGlu-C18 diacid])T-NH2; N-terminus assumed)
0.7 | 3 | CC(C)C[C@H](NC(=O)[C@H](Cc1c[nH]c2ccccc12)NC(=O)[C@H](CCC(N)=O)NC(=O)[C@@H](NC(=O)[C@H](Cc1ccccc1)NC(=O)[C@H](CCC(=O)O)NC(=O)[C@H](CCCNC(=N)N)NC(=O)[C@H](C)NC(=O)[C@H](CCCNC(=N)N)NC(=O)[C@H](CCCNC(=N)N)NC(=O)C(C)(C)NC(=O)[C@H](CC(=O)O)NC(=O)[C@H](CC(C)C)NC(=O)[C@H](Cc1ccc(O)cc1)NC(=O)[C@H](CCCCN)NC(=O)[C@H](CO)NC(=O)[C@H](CC(C)C)NC(=O)[C@H](CC(=O)O)NC(=O)[C@H](CO)NC(=O)[C@@H](NC(=O)[C@H](Cc1ccccc1)NC(=O)[C@@H](NC(=O)CNC(=O)[C@H](CCC(N)=O)NC(=O)C(C)(C)NC(=O)[C@@H](N)Cc1c[nH]cn1)[C@@H](C)O)[C@@H](C)O)C(C)C)C(=O)N[C@@H](CC(C)C)C(=O)N[C@@H](CCCCNC(=O)CC[C@H](NC(=O)CC[C@H](NC(=O)COCCOCCNC(=O)COCCOCCNC(=O)CC[C@H](NC(=O)CCCCCCCCCCCCCCCCC(=O)O)C(=O)O)C(=O)O)C(=O)O)C(=O)N[C@H](C(N)=O)[C@@H](C)O [Example 51, N^ε28-[(4S)-4-carboxy-4-[[(4S)-4-carboxy-4-[[2-[2-[2-[[2-[2-[2-[[(4S)-4-carboxy-4-(17-carboxyheptadecanoylamino)butanoyl]amino]ethoxy]ethoxy]acetyl]amino]ethoxy]ethoxy]acetyl]amino]butanoyl]amino]butanoyl]-[Aib2,Leu10,Aib16,Arg20,Glu21,Leu27,Lys28]-Glucagon amide] (H-H[Aib]QGTFTSDLSKYLD[Aib]RRAREFVQWLLK([γGlu-γGlu-AEEA-AEEA-γGlu-C18 diacid])T-NH2; N-terminus assumed)
